Data on ten compounds can be found in US7615554B2, “Erastin and erastin binding proteins, and uses thereof” (Prolexys Pharmaceuticals, Inc., priority 2005, dated 2009).

The structures appear in SMILES notation.

One test relates to engineered cell lines. As to the kind of experiment: Selectivity across the engineered cell lines (calcein AM IC50 ratios). It is filed as cell-based, human. Conditions: from selectivity ratio for each subsequent pair of cell lines in a series. On the procedure: To calculate this selectivity score between two cell lines, the IC50 for a compound in one cell line was divided by the IC50 for the same compound in a second cell line. […] The “tumor selectivity score” was calculated for each compound, by dividing the IC50 value for the compound in the parental, primary BJ cells by the IC50 value for the compound in engineered BJ-TERTALT/ST/RAS^V12 cells, containing all four genetic elements required to create tumorigenic cells (Table 1).
Applicants sought to determine the genetic basis of selectivity for each compound. That is, for each compound, they attempted to define the gene or combination of genes responsible for rendering cells sensitive to the compound (Table 1).
The IC50 in primary BJ cells was divided by the IC50 in BJ-TERT/LT/ST/RAS^V12 tumorigenic cells to obtain a tumor selectivity ratio for each compound. The compound selectivity for each genetic element was determined by calculating the selectivity ratio for each subsequent pair of cell lines in a series.

The subject of another test is PANC-1 xenografts. As to the kind of experiment: PANC-1 tumor treatment study. It is filed as in vivo. Conditions: immunodeficient nude mouse; once a day for five consecutive days. On the procedure:
The experimental plan for the PANC-1 study was essentially identical to that of the HT-1080 study outlined above in Example 10 with the following exceptions: approximately 30-40 mg fragment of passaged PANC-1 tumor tissue was implanted subcutaneously in the right flank of an immunodeficient nude mouse. Tumor growth was monitored daily and when the tumors reached approximately 100 mm^3, animals harboring similarly sized tumors were group matched and compound dosing was initiated. Administration of compound 5 occurred once a day for five consecutive days at the doses listed below. In the PANC-1 xenografts, gemcitabine, administered at the maximum tolerated dose for the model, was used as a control. The gemcitabine regimen was 180 mg/kg […] on every third day over a period of 9 days.

Another test has as its system HT-1080 xenografts. As to the kind of experiment: HT-1080 tumor treatment study. It is filed as in vivo, mouse. The following applies: nude Balb/c mice; 100 or 50 mg/Kg, QD×5 days, IP. On the procedure: Nude Balb/c (Nu/Nu strain, Charles River Laboratories), female, 5-6 week old (˜20 g average body weight).
Both compounds were formulated in an identical manner. For the 100 mg/kg dose level, each compound was delivered at a concentration of 10.0 mg/ml, in an injection volume of 0.2 ml. For the 50 mg/kg dose level, each compound was delivered at a concentration of 5.0 mg/ml, in an injection volume of 0.2 ml. For both dose levels, the vehicle contained 0.025% Tween-80, 0.01% benzyl alcohol, 35 mM acetic acid (HOAc), 100 mM potassium phosphate-buffer, and 32 mM sucrose, pH=6.5.
• A: PRLX compound 6 @ 100 mg/Kg, QD×5 days, IP, n=8 • B: PRLX compound 6 @ 50 mg/Kg, QD×5 days, IP, n=8 • C: PRLX compound 5 @ 100 mg/Kg, QD×5 days, IP, n=8 • D: PRLX compound 5 @ 50 mg/Kg, QD×5 days, IP, n=8 • E: Vehicle Control, QD×5 days, IP, n=8 • F: Untreated Control, n=8 Treatment Schedule:
Beginning when the mean tumor volume reached ˜200 mm^3, and continuing through day 5, every day, each animal was administered a single IP injection of one of the above treatments, for a total of 5 doses. […]
Starting on Day 1, all animals were weighed, and tumor dimensions (length (L) and width (W)) were measured, every other day. […]
The resulting tumor volume values were averaged for each study group for each time point, and were then plotted against time. Variance was expressed as standard error of the mean (±SEM).

The subject of test [1] is BJ-TERT/LT/ST/RAS^V12 tumorigenic cells. As to the kind of experiment: Calcein AM viability assay, BJ-TERT/LT/ST/RAS^V12 cells. Type of test: cell-based, human. The source says:
Described here is work carried out to identify compounds with increased potency or activity in the presence of hTERT, LT, ST, E6, E7 or RAS^V12. Although the work described herein made use of hTERT, LT, ST, E6, E7 and RAS^V12 as transforming genes, future studies can make use of a wide variety of cancer-associated alleles using this methodology in order to define the signaling networks that involve many oncogenes and tumor suppressors. Engineered cell lines with these genetic elements were used to screen 23,550 compounds, including 20,000 compounds from a combinatorial library, 1,990 compounds from the National Cancer Institute diversity collection, and 1,540 biologically active known compounds that were selected and purchased by Applicant and formatted into a screenable collection. […] Cell viability was measured using the dye calcein acetoxymethyl ester (calcein AM) (Wang et al., 1993, Hum. Immunol. 37, 264-270), which is a non-fluorescent compound that freely diffuses into cells. […]
Calcein acetoxylmethyl ester (AM) is a cell membrane-permeable, non-fluorescent compound that is cleaved by intracellular esterases to form the anionic, cell-impermeable, fluorescent compound calcein. […] Total fluorescence intensity in each well was recorded on a Packard Fusion platereader, and converted to a percent inhibition of signal by subtracting the instrument background and dividing by the average signal obtained when cells were not treated with any compound. […]
Mean RFU (relative fluorescence units) for untreated cells was calculated by averaging columns 1, 2, and 23 (wells with cells but lacking compounds). The calcein background was calculated by averaging column 24 (wells with calcein, but lacking cells). Percentage inhibition of each well was calculated as [1−(RFU−calcein control)/(untreated cell−calcein control)*100]. […]

The test system of another test is BJ primary cells. Put plainly: Sensitization of BJ primary cells by co-treatment (calcein AM viability). Type of test: cell-based, human. Conditions: BJ (or BJ-TERT) cells, simultaneous treatment with camptothecin. The source says:
(A-C) Western blot of lysates from BJ, BJ-TERT, BJ-TERT/LT/ST, BJ-TERT/LT/ST/RAS^V12, BJ-TERT/LT/RAS^V12 and BJ-TERT/LT/RAS^V12/ST cells with an antibody directed against topoisomerase II (A) or TOPI (B, C). In panel (C), cells were transfected with a siRNA directed against TOPI, lamic A/C or with a control double strand DNA duplex of the same length (TOPI dsDNA). In each case, the blot was probed with an antibody against eIF-4E to identify differences in the amount of protein loaded. The relative amount is quantitated below each band. (D) A TOPI siRNA prevents cell death caused by camptothecin in engineered tumor cells. Cell number was determined after transfection with a siRNA directed against TOPI and treatment with the indicated concentrations of camptothecin. (E) Okadaic acid, an inhibitor of PP2A and other cellular phosphatases, sensitizes primary human cells to camptothecin. BJ primary cells were treated simultaneously with the indicated concentrations of both camptothecin and okadaic acid and the effect on calcein AM viability staining was determined. […] BJ primary cells were treated with the indicated concentrations of okadaic acid and the expression level of TOPI was determined by western blot. The relative amount is quantitated below each band.
The compounds in group (iii) are camptothecin (CPT) and a novel compound from a combinatorial library, which Applicants have named erastin, for eradicator of RAS and ST-expressing cells (FIG. 2). Efficient CPT-induced and erastin-induced cell death requires the presence of both ST and RAS^V12 (FIGS. 3 and 4 and Table 1). Although CPT and erastin have a similar genetic basis of selectivity, they have distinct mechanisms of action. CPT is partially active in cells lacking RB function (via expression of E7), whereas erastin is not, and CPT requires two days to cause death in BJ-TERT/LT/ST/RAS^V12 cells, while erastin is 100% effective within 18 hours (FIGS. 3 and 4). […]

`COc1ccc(C[C@H]2C(=O)N[C@@H](C)C(=O)N(C)[C@@H]3C(=O)N(C)[C@@H](Cc4ccc(O)c(c4)Oc4ccc(cc4)[C@@H]3O)C(=O)N[C@H](C)C(=O)N[C@@H](C)C(=O)N2C)cc1` [Bouvardin]: the “Genetic basis of Selectivity” value in the test with engineered cell lines is recorded as “non-specific”.

Turning to `CCOc1ccccc1-n1c(CN2CCNCC2)nc2ccccc2c1=O` [Compound 5, 3-(2-ethoxyphenyl)-2-(piperazin-1-ylmethyl)quinazolin-4(3H)-one], the “antitumor activity in PANC-1 xenografts (tumor volume)” value with PANC-1 xenografts is “tumor regression”. The “antitumor activity in HT-1080 xenografts (tumor volume)” value in the test with HT-1080 xenografts is given as “robust tumor regression”.

As to `CCOc1ccccc1-n1c(C(C)N2CCNCC2)nc2ccccc2c1=O` (stereo not shown) [Compound 6], the “antitumor activity in PANC-1 xenografts (tumor volume)” value in the test on PANC-1 xenografts was “tumor growth inhibition”. In the test with HT-1080 xenografts, the “antitumor activity in HT-1080 xenografts (tumor volume)” value is “tumor growth inhibition”.

Take `COc1cccc2c1C(=O)c1c(O)c3c(c(O)c1C2=O)C[C@@](O)(C(C)=O)C[C@@H]3O[C@H]1C[C@H](N)[C@H](O)[C@H](C)O1` [Daunorubicin, daunorubicin]: the “Genetic basis of Selectivity” value with engineered cell lines is “TERT/RB”.

As to `COc1cccc2c1C(=O)c1c(O)c3c(c(O)c1C2=O)C[C@@](O)(C(=O)CO)C[C@@H]3O[C@H]1C[C@H](N)[C@H](O)[C@H](C)O1` [Doxorubicin, doxorubicin], the “Genetic basis of Selectivity” value in the test with engineered cell lines is reported as “TERT/RB”.

In the case of `CS[C@H]1SC[C@H]2C(=O)N(C)[C@@H](C(C)C)C(=O)OC[C@@H](NC(=O)c3cnc4ccccc4n3)C(=O)N[C@@H](C)C(=O)N(C)[C@@H]1C(=O)N(C)[C@@H](C(C)C)C(=O)OC[C@@H](NC(=O)c1cnc3ccccc3n1)C(=O)N[C@@H](C)C(=O)N2C` [Echinomycin, echinomycin], in the test on engineered cell lines, the “Genetic basis of Selectivity” value is “non-specific”.

Regarding `CCOc1ccccc1-n1c(C(C)N2CCN(C(=O)COc3ccc(Cl)cc3)CC2)nc2ccccc2c1=O` (stereo not shown) [Erastin, erastin], the “effectiveness of cell killing” value in test [1] (BJ-TERT/LT/ST/RAS^V12 cells, within 18 hours) is recorded as 100%. Moreover, the “time to irreversible, non-apoptotic cell death” value in test [1] (ST- and RAS^V12-dependent) is 12 to 24 h.

Consider `O=C1c2c(O)ccc(O)c2C(=O)c2c(NCCNCCO)ccc(NCCNCCO)c21` [Mitoxantrone, mitoxantrone], for which the “Genetic basis of Selectivity” value with engineered cell lines is recorded as “TERT/RB”.

Take `NC(=O)c1cn([C@@H]2O[C@H](CO)[C@@H](O)[C@H]2O)c2ncnc(N)c12` [Sangivamycin, sangivamycin]: the “Genetic basis of Selectivity” value with engineered cell lines is “non-specific”.

Consider `COc1cc([C@@H]2c3cc4c(cc3[C@H](O)[C@H]3COC(=O)[C@H]23)OCO4)cc(OC)c1OC` [podophyllotoxin], for which the sensitization to camptothecin entry in the test with BJ primary cells is “does not sensitize BJ or BJ-TERT cells to CPT”.
